Columns and labels:
TTR [1] = assay: In vitro on-target activity, primary mouse hepatocytes, transfection, RT-qPCR (TTR siRNAs); format: cell-based; settings: for On-target TX: 10 nM, log2 transformed, relative to the parent
Experimental: Cell culture and transfections: Primary Mouse Hepatocytes (Thermo Fisher Scientific/Gibco) were transfected by adding 4.9 μL of Opti-MEM plus 0.1 μL of Lipofectamine RNAiMax per well (Invitrogen, cat #13778-150) to 5 μL of siRNA duplexes per well into a 384-well plate and incubated at room temperature for 15 minutes. 40 μL of Dulbecco's Modified Eagle Medium (Hep3b) or William's Medium (PMH) containing ˜5 ×10^3 cells were then added to the siRNA mixture. Cells were incubated for 24 hours at 37° C. and then processed for RNA purification. Experiments were performed at 10 nM and 0.1 nM doses of siRNA.
Total RNA isolation using DYNABEADS mRNA Isolation Kit: RNA was isolated using an automated protocol on a BioTek-EL406 platform using DYNABEADs (Invitrogen, cat #61012). Briefly, 70 μL of Lysis/Binding Buffer and 10 μL of lysis buffer containing 3 μL of magnetic beads were added to each well. Plates were incubated on an electromagnetic shaker for 10 minutes at room temperature and then magnetic beads were captured and the supernatant was removed. Bead-bound RNA was then washed 2 times with 150 μL Wash Buffer A and once with Wash Buffer B. Beads were then washed with 150 μL Elution Buffer, re-captured and supernatant removed.
cDNA synthesis using ABI High capacity cDNA reverse transcription kit (Applied Biosystems, cat #4368813): 12 μL of a master mix containing 1.2 μL 10× Buffer, 0.48 μL 25× dNTPs, 1.2 μL 10× Random primers, 0.6 μL Reverse Transcriptase, 0.6 μL RNase inhibitor and 7.92 μL of H2O per reaction was added to RNA isolated above. Plates were sealed, mixed, and incubated on an electromagnetic shaker for 10 minutes at room temperature, followed by 2 h 37° C.
Real time PCR: 2 μL of cDNA were added to a master mix containing 2 μL water, 0.5 μL of either an appropriate GAPDH TaqMan VIC Probe or the target probe and 5 μL Lightcycler 480 probe master mix (Roche, cat #04887301001) per well in a 384 well plate (Roche, cat #04887301001). Real time PCR was done in a LightCycler480 Real Time PCR system (Roche). Each duplex was tested in quadruplicate and data were normalized to cells transfected with a non-targeting control siRNA. To calculate relative fold change, real time data were analyzed using the ΔΔCt method and normalized to assays performed with cells transfected with a non-targeting control siRNA.
RT qPCR for Ttr mRNA quantification:_Primary mouse hepatocytes (PMH) were cultured in Williams E Medium with 10% fetal bovine serum. Transfection of cells using RNAiMAX reagent was done as per the manufacturer's recommended protocol. Thus, cells were thawed immediately prior to transfection and then plated onto 384-well plates with a seed density of ˜5000 cells/well. Pre-incubated lipid/siRNA complex (0.1 μL RNAiMax, siRNA, in 5 μL Opti-MEM for 15 min) was added to a 384-well collagen-coated plate (BioCoat; Corning) and cells were incubated for 20 h at 37° C. in an atmosphere of 5% CO2. Eight 6-fold serial dilutions ranging from 10 to 0.036 nM were used to perform dose response experiments. Media was removed before washing and lysing the cells. Using Dynabeads mRNA isolation kit according to manufacturer's protocol, RNA was extracted and subsequently reverse-transcribed with the ABI high capacity cDNA reverse transcription kit. Quantification was done by real-time PCR, whereby the cDNA (2 μL) was added to a master mix that contained 0.5 μL mouse Gapdh TaqMan Probe, 0.5 μL Ttr TaqMan probes, and 5 μL Lightcycler 480 probe master mix per well in a 384-well 50 plate. Real-time PCR was accomplished in an ABI 7900HT RT-PCR system using the ΔΔCt (RQ) assay. Each duplex and concentration was tested in four biological replicates. To calculate relative fold change, real time data were analyzed using the ΔΔCt method and normalized to assays performed with cells transfected with 10 nM nonspecific siRNA. IC50 values were calculated using a 4-parameter fit model using XLFit.

TTR [2] = assay: In vitro on-target activity, primary mouse hepatocytes, free uptake (TTR siRNAs); format: cell-based; settings: 1 nM, log2 transformed, relative to the parent
[3] = Temperature-dependent UV spectroscopy, Tm of modified siRNA duplexes; format: physicochemical; settings: 1 μM duplex, 0.25x PBS
Experimental: Temperature-dependent UV Spectroscopy: The melting studies were performed at a duplex concentration of 1 μM (consisting of the modified antisense […]) in 1 cm path length quartz cells on a Cary 300 spectrophotometer equipped with a thermoprogrammer. Each cuvette contained 800 μL of sample solution covered by 200 μL of light mineral oil. Melting curves were monitored at 260 nm with a heating rate of 1° C./min from 15-90° C. Melting temperatures (Tm) were calculated from the first derivatives of the smoothed heating curves and the reported values are the result of at least two independent measurements.

[4] = TTR-3, antisense strand modified at position 7, primary mouse hepatocytes
[5] = TTR-4, modification at antisense position 7, primary mouse hepatocytes
[6] = antisense Position 5, Seq 3 (TTR)
[7] = antisense Position 7, Seq 3 (TTR)
[8] = antisense Position 7, Seq 4 (TTR)
[9] = TTR-3, antisense strand modified at position 5, primary mouse hepatocytes

On-target FU (TTR [2]; [6]) | On-target FU (TTR [2]; [7]) | On-target FU (TTR [2]; [8]) | Thermal melting temperature (Tm) [3, 6] [°C] | Thermal melting temperature (Tm) [3, 7] [°C] | Thermal melting temperature (Tm) [3, 8] [°C] | Substance | IC50 (TTR [1]; [4]) [nM] | IC50 (TTR [1]; [5]) [nM] | On-target TX (TTR [1]; [6]) | On-target TX (TTR [1]; [7]) | On-target TX (TTR [1]; [8]) | IC50 (TTR [1]; [9]) [nM]
0.02 | −0.35 | −0.24 | 84.0 | 80.0 | 82.1 | 2′-(R)-Me-UNA [Mod 7 (R)] | 0.0186 | 0.0277 | 0.50 | 0.15 | −0.99 | –
−0.10 | −0.02 | −0.14 | 84.3 | 80.0 | 83.0 | 2′-(S)-Me-UNA [Mod 7 (S)] | 0.0235 | 0.0486 | 0.43 | 0.72 | −0.79 | 0.00254
−0.78 | −0.32 | 0.36 | 84.1 | 81.2 | 82.0 | 3′-(R)-Me-UNA [Mod 6 (R)] | 0.0348 | 0.0358 | −0.28 | 0.67 | −0.98 | 0.00157
−0.38 | −0.53 | −0.09 | 84.0 | 81.1 | 82.0 | 3′-(S)-Me-UNA [Mod 6 (S)] | 0.0322 | 0.0239 | 0.18 | 0.06 | −0.31 | 0.00316
−0.16 | −0.03 | −0.33 | 84.2 | 80.3 | 82.0 | 5′-(R)-Me-UNA [Mod 5 (R)] | 0.0138 | 0.0898 | 0.45 | 0.50 | −1.26 | 0.00147
−0.87 | −1.20 | 0.22 | 84.2 | 80.3 | 82.0 | 5′-(S)-Me-UNA [Mod 5 (S)] | 0.015 | 0.0421 | −0.03 | −0.04 | −0.97 | 0.0011
